19 compounds from patent publication US8410144B2, “Substituted indolo-pyridinone compounds” (ArQule, Inc., priority 2009, dated 2013) can be followed below.

The target in one series is IGF-1R (Homo sapiens, UniProt P08069). The series is described as follows: IGFR1 activity assay (ELISA). To be noted: read-out: IGF-1R, PCT INH (30 μM), ELISA. In kind it is biochemical. An outline of the steps:
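IGF1R (0.33 ng/μL final) phosphorylating Pyk-2 (0.05 ng/μL final) in buffer with 12.5 μM ATP, 10 mM MgCl2, 1 h room temperature. Product captured on streptavidin plates, detected with anti-phosphotyrosine and alkaline phosphatase secondary antibody, Attophos fluorescent readout.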

The test system of the next series is KATO III. Nature of the series: MTS assay, KATO III cells. In kind it is cell-based. As to conditions: Homo sapiens, 72 hours, read-out: KATO III, MTS cell kill % inhibition. An outline of the steps: (§1)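 First, seed 3000 cells per well in low-serum (1% FBS) DMEM and culture 18 h. Next, add compounds prepared at 300× in DMSO and diluted 1:40 in DMEM; incubate 72 h. Finally, add MTS/PMS for 4 h and measure absorbance at 492 nm.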

In a further series the test system is MDA-MB-231. The series is described as follows: MTS assay, MDA-MB-231 cells. As to conditions: Homo sapiens, 72 hours, read-out: MDA-MB-231, MTS cell kill % inhibition. Format: cell-based. An outline of the steps:
as §1

The next series deals with NCI-H1299. The series is described as follows: MTS assay, NCI-H1299 cells. In kind it is cell-based. As to conditions: Homo sapiens, 72 hours, read-out: NCI-H1299, MTS cell kill % inhibition. The gist of the method: as §1
A further series relates to DLD-1. The series is described as follows: MTS assay, DLD-1 cells. Format: cell-based. To be noted: Homo sapiens, 72 hours, read-out: DLD-1, MTS cell kill % inhibition. The gist of the method: as §1

Chain of IGF-1R (P08069 31-1367): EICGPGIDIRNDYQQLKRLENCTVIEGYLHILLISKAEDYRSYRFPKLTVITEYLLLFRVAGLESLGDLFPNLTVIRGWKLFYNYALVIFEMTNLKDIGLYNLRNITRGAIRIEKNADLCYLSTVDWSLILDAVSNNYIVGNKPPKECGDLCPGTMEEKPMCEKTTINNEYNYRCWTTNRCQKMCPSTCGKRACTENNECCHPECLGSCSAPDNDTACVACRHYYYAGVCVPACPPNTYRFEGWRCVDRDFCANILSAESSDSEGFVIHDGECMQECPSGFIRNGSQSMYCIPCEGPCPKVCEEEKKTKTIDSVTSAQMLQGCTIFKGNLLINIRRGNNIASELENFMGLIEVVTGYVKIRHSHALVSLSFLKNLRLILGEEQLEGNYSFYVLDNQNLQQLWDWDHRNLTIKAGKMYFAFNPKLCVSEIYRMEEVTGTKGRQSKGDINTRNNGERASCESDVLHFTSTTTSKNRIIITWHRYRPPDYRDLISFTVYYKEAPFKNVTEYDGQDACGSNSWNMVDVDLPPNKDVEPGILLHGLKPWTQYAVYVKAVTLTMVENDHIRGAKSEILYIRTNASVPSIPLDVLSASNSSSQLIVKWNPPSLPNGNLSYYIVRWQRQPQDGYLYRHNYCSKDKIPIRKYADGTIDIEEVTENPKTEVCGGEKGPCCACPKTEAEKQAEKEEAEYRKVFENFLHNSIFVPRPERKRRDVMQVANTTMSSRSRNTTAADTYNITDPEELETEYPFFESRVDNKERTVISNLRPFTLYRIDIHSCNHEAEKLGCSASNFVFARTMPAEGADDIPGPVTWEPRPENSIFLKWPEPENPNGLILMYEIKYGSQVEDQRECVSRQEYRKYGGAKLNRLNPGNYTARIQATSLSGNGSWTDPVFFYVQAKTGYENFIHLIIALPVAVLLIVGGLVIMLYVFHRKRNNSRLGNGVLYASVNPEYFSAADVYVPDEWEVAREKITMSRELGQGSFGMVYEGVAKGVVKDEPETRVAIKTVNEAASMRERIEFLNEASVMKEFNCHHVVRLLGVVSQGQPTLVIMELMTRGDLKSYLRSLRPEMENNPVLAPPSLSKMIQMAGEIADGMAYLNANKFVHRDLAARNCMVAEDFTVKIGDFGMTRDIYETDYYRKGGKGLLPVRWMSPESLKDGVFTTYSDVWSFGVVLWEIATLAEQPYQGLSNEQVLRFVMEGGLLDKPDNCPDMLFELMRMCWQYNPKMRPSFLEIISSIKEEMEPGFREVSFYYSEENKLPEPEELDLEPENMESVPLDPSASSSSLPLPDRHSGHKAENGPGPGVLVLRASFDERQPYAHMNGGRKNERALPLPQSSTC

For `O=C(c1ccc2[nH]c(-c3ccc[nH]c3=O)c(-c3ccccc3)c2c1)N1CCCCC1` [Compound 17, 3-[3-phenyl-5-(piperidin-1-ylcarbonyl)-1H-indol-2-yl]pyridin-2(1H)-one], the melting point was in the range of 182 to 186 °C. Further, the inhibition at 30 µM on IGF-1R fell in the range of 80 to 100%. Besides, the inhibition at 10 µM with KATO III is 80 to 100%. In the series on MDA-MB-231, the inhibition at 10 µM is below 50%. Further, the inhibition at 10 µM in the series with NCI-H1299 lay within 80 to 100%. Further, the inhibition at 10 µM with DLD-1 was 50 to 79%.

Compound `O=C(NC1CCNCC1)c1ccc2[nH]c(-c3ccc[nH]c3=O)c(-c3ccccc3)c2c1` [Compound 3, 2-(2-oxo-1,2-dihydropyridin-3-yl)-3-phenyl-N-piperidin-4-yl-1H-indole-5-carboxamide] returned a melting point of 233 to 236 °C. The inhibition at 30 µM on IGF-1R was in the range of 50 to 79%.

Consider `CN1CCCC1CCNC(=O)c1ccc2[nH]c(-c3ccc[nH]c3=O)c(-c3ccccc3)c2c1` (centres unmarked) [Compound 5, N-[2-(1-methylpyrrolidin-2-yl)ethyl]-2-(2-oxo-1,2-dihydropyridin-3-yl)-3-phenyl-1H-indole-5-carboxamide], for which the melting point lay in the range of 185 to 188 °C. Also, the inhibition at 30 µM on IGF-1R was below 50%. The inhibition at 10 µM in the series with KATO III was 80 to 100%. Moreover, in the series on MDA-MB-231, the inhibition at 10 µM was in the range of 50 to 79%. Further, the inhibition at 10 µM in the series on NCI-H1299 lay in the range of 80 to 100%. Also, in the series with DLD-1, the inhibition at 10 µM was 50 to 79%.

In turn, `CN(C)CCCNC(=O)c1ccc2[nH]c(-c3ccc[nH]c3=O)c(-c3ccccc3)c2c1` [Compound 30, N-[3-(dimethylamino)propyl]-2-(2-oxo-1,2-dihydropyridin-3-yl)-3-phenyl-1H-indole-5-carboxamide] yielded a melting point of 143 to 145 °C. At IGF-1R, the inhibition at 30 µM fell in the range of 80 to 100%. Also, the inhibition at 10 µM in the series with KATO III lay within 80 to 100%. Besides, the inhibition at 10 µM in the series with MDA-MB-231 lay within 80 to 100%. Besides, in the series on NCI-H1299, the inhibition at 10 µM fell in the range of 80 to 100%. Besides, the inhibition at 10 µM in the series on DLD-1 was in the range of 80 to 100%.

`Cc1cc(C)cc(-c2c(-c3ccc[nH]c3=O)[nH]c3ccc(C(=O)NCCCN4CCOCC4)cc23)c1` [Compound 70, 3-(3,5-dimethylphenyl)-N-(3-morpholin-4-ylpropyl)-2-(2-oxo-1,2-dihydropyridin-3-yl)-1H-indole-5-carboxamide]: the melting point lay within 115 to 120 °C. The inhibition at 30 µM on IGF-1R was 80 to 100%. The inhibition at 10 µM with KATO III was 80 to 100%. Further, the inhibition at 10 µM in the series with MDA-MB-231 was in the range of 80 to 100%. Besides, in the series with NCI-H1299, the inhibition at 10 µM lay in the range of 80 to 100%. Moreover, the inhibition at 10 µM in the series on DLD-1 was in the range of 80 to 100%.

For the compound `CN(C)CCCN(C)C(=O)c1ccc2[nH]c(-c3ccc[nH]c3=O)c(-c3ccccc3)c2c1` [Compound 27, N-[3-(dimethylamino)propyl]-N-methyl-2-(2-oxo-1,2-dihydropyridin-3-yl)-3-phenyl-1H-indole-5-carboxamide], the melting point lay within 125 to 128 °C. Moreover, the inhibition at 30 µM at IGF-1R was in the range of 80 to 100%. The inhibition at 10 µM in the series on KATO III fell in the range of 80 to 100%. For the same compound, the inhibition at 10 µM in the series with MDA-MB-231 fell in the range of 50 to 79%. Besides, the inhibition at 10 µM in the series with NCI-H1299 is 50 to 79%. For the same compound, the inhibition at 10 µM in the series on DLD-1 is 50 to 79%.

`O=C(Nc1ccccc1Cl)c1ccc2[nH]c(-c3ccc[nH]c3=O)c(-c3ccccc3)c2c1` [Compound 12, N-(2-chlorophenyl)-2-(2-oxo-1,2-dihydropyridin-3-yl)-3-phenyl-1H-indole-5-carboxamide]: the melting point is above 300 °C. Further, the inhibition at 30 µM on IGF-1R was below 50%. The inhibition at 10 µM in the series on KATO III was in the range of 80 to 100%. Further, in the series on MDA-MB-231, the inhibition at 10 µM fell in the range of 50 to 79%. The inhibition at 10 µM with NCI-H1299 lay within 80 to 100%. Besides, in the series with DLD-1, the inhibition at 10 µM was 80 to 100%.

As to `O=c1[nH]cccc1-c1[nH]c2ccccc2c1C1CCN(Cc2cccc3ccccc23)CC1` [Compound 88, 3-{3-[1-(1-naphthylmethyl)piperidin-4-yl]-1H-indol-2-yl}pyridin-2(1H)-one], the melting point lay in the range of 205 to 206 °C. Besides, the inhibition at 30 µM at IGF-1R is below 50%. In the series on KATO III, the inhibition at 10 µM is below 50%. Further, the inhibition at 10 µM in the series with MDA-MB-231 is 80 to 100%. In the series with NCI-H1299, the inhibition at 10 µM is below 50%. Further, the inhibition at 10 µM with DLD-1 was 80 to 100%.

Turning to `O=c1[nH]cccc1-c1[nH]c2ccccc2c1-c1ccccc1` [Compound 84, 3-(3-phenyl-1H-indol-2-yl)pyridin-2(1H)-one], the melting point fell in the range of 240 to 242 °C. At IGF-1R, the inhibition at 30 µM lay within 80 to 100%. For the same compound, the inhibition at 10 µM in the series with KATO III is 80 to 100%. Besides, the inhibition at 10 µM in the series on MDA-MB-231 fell in the range of 50 to 79%. In the series on NCI-H1299, the inhibition at 10 µM lay in the range of 50 to 79%. The inhibition at 10 µM in the series with DLD-1 is 50 to 79%.

`O=C(Nc1cccc(F)c1)c1ccc2[nH]c(-c3ccc[nH]c3=O)c(-c3ccccc3)c2c1` [Compound 13, N-(3-fluorophenyl)-2-(2-oxo-1,2-dihydropyridin-3-yl)-3-phenyl-1H-indole-5-carboxamide] displayed a melting point of 176 to 182 °C. Moreover, the inhibition at 30 µM on IGF-1R lay in the range of 50 to 79%. The inhibition at 10 µM in the series on KATO III was 80 to 100%. Further, in the series with MDA-MB-231, the inhibition at 10 µM lay within 50 to 79%. In addition, in the series with NCI-H1299, the inhibition at 10 µM was 80 to 100%. For the same compound, the inhibition at 10 µM in the series with DLD-1 is 80 to 100%.

In turn, `O=C(NCC1CCNCC1)c1ccc2[nH]c(-c3ccc[nH]c3=O)c(-c3ccccc3)c2c1` [Compound 4, 2-(2-oxo-1,2-dihydropyridin-3-yl)-3-phenyl-N-(piperidin-4-ylmethyl)-1H-indole-5-carboxamide] returned a melting point of 189 to 191 °C. On IGF-1R, the inhibition at 30 µM lay within 80 to 100%.

Take `Cc1cccc(-c2c(-c3ccc[nH]c3=O)[nH]c3ccc(C(=O)NCCCN4CCOCC4)cc23)c1` [Compound 78, 3-(3-methylphenyl)-N-(3-morpholin-4-ylpropyl)-2-(2-oxo-1,2-dihydropyridin-3-yl)-1H-indole-5-carboxamide]: the melting point was 120 to 122 °C. Besides, the inhibition at 30 µM at IGF-1R fell in the range of 80 to 100%. Moreover, the inhibition at 10 µM with KATO III is below 50%. In addition, the inhibition at 10 µM in the series on MDA-MB-231 is below 50%. In addition, the inhibition at 10 µM in the series with NCI-H1299 is 50 to 79%. Moreover, in the series on DLD-1, the inhibition at 10 µM lay within 50 to 79%.

Compound `CC(C)c1cccc(-c2c(-c3ccc[nH]c3=O)[nH]c3ccc(C(=O)NCCCN4CCOCC4)cc23)c1` [Compound 71, 3-(3-isopropylphenyl)-N-(3-morpholin-4-ylpropyl)-2-(2-oxo-1,2-dihydropyridin-3-yl)-1H-indole-5-carboxamide] displayed a melting point of 89 to 92 °C. Moreover, the inhibition at 10 µM in the series on KATO III is 80 to 100%. For the same compound, in the series on MDA-MB-231, the inhibition at 10 µM lay within 80 to 100%. Also, the inhibition at 10 µM in the series with NCI-H1299 was 80 to 100%. In addition, the inhibition at 10 µM in the series with DLD-1 fell in the range of 80 to 100%.

`COc1ccc(NC(=O)c2ccc3[nH]c(-c4ccc[nH]c4=O)c(-c4ccc(-c5ccccc5)cc4)c3c2)cc1` [Compound 48, 3-biphenyl-4-yl-N-(4-methoxyphenyl)-2-(2-oxo-1,2-dihydropyridin-3-yl)-1H-indole-5-carboxamide] returned a melting point of 154 to 162 °C. For the same compound, the inhibition at 30 µM on IGF-1R was below 50%. Moreover, the inhibition at 10 µM with KATO III was 50 to 79%. Besides, the inhibition at 10 µM with NCI-H1299 lay in the range of 50 to 79%. Besides, the inhibition at 10 µM with DLD-1 fell in the range of 50 to 79%.

`O=C(NCCCN1CCOCC1)c1ccc2[nH]c(-c3ccc[nH]c3=O)c(-c3cc(Cl)cc(Cl)c3)c2c1` [Compound 75, 3-(3,5-dichlorophenyl)-N-(3-morpholin-4-ylpropyl)-2-(2-oxo-1,2-dihydropyridin-3-yl)-1H-indole-5-carboxamide] came in with a melting point of 125 to 130 °C. Further, in the series with KATO III, the inhibition at 10 µM fell in the range of 80 to 100%. In the series with MDA-MB-231, the inhibition at 10 µM fell in the range of 80 to 100%. Moreover, the inhibition at 10 µM with NCI-H1299 is 80 to 100%. Besides, in the series on DLD-1, the inhibition at 10 µM was in the range of 80 to 100%.

Compound `O=C(c1ccc2[nH]c(-c3ccc[nH]c3=O)c(-c3ccccc3)c2c1)N1CCc2ccccc2C1` [Compound 28, 3-[5-(3,4-dihydroisoquinolin-2(1H)-ylcarbonyl)-3-phenyl-1H-indol-2-yl]pyridin-2(1H)-one] came in with a melting point of 171 to 177 °C. In addition, the inhibition at 30 µM on IGF-1R was in the range of 80 to 100%. Also, the inhibition at 10 µM with KATO III lay in the range of 80 to 100%. In addition, the inhibition at 10 µM with NCI-H1299 lay within 80 to 100%. Besides, the inhibition at 10 µM in the series with DLD-1 lay within 80 to 100%.

The compound `O=C(NCCCN1CCOCC1)c1ccc2[nH]c(-c3ccc[nH]c3=O)cc2c1` [Compound 55, N-(3-morpholin-4-ylpropyl)-2-(2-oxo-1,2-dihydropyridin-3-yl)-1H-indole-5-carboxamide] came in with a melting point of 130 to 132 °C. Moreover, at IGF-1R, the inhibition at 30 µM is 80 to 100%. The inhibition at 10 µM in the series with KATO III was below 50%. Also, in the series with MDA-MB-231, the inhibition at 10 µM is below 50%.

The compound `O=C(c1ccccc1)N1CCC(c2c(-c3ccc[nH]c3=O)[nH]c3ccccc23)CC1` [Compound 87, 3-[3-(1-benzoylpiperidin-4-yl)-1H-indol-2-yl]pyridin-2(1H)-one] showed a melting point of 294 to 296 °C. For the same compound, the inhibition at 10 µM in the series with KATO III is below 50%. Moreover, in the series with MDA-MB-231, the inhibition at 10 µM fell in the range of 80 to 100%. Besides, in the series with NCI-H1299, the inhibition at 10 µM was below 50%. The inhibition at 10 µM with DLD-1 is below 50%.

For the compound `O=C(c1ccc2[nH]c(-c3ccc[nH]c3=O)c(-c3ccc(-c4ccccc4)cc3)c2c1)N1CCc2ccccc2C1` [Compound 47, 3-[3-biphenyl-4-yl-5-(3,4-dihydroisoquinolin-2(1H)-ylcarbonyl)-1H-indol-2-yl]pyridin-2(1H)-one], the melting point lay in the range of 101 to 110 °C. Moreover, the inhibition at 10 µM in the series with KATO III lay within 50 to 79%. The inhibition at 10 µM with MDA-MB-231 was below 50%. In addition, the inhibition at 10 µM with NCI-H1299 is below 50%. Further, the inhibition at 10 µM in the series with DLD-1 is 50 to 79%.
